Laboratory results: patent US20180071242A1, “SUBSTITUTED ACYLANILIDES AND METHODS OF USE THEREOF” (University of Tennessee Research Foundation, priority 2006, published 2018)

Columns and labels:
CYP2C9 = molecular target: T1, CYP2C9 (Homo sapiens, UniProt P11712); assay: CYP inhibition screening, recombinant enzyme (fluorescent-based) assay; assay type: in vitro ADME; conditions: for Inhibition of CYP2C9 activity (in words): human, 30 min
T1 construct: purchased Gentest, BD Biosciences

GR = molecular target: T2, GR (Rattus norvegicus, UniProt P06536); assay: Transient transfection luciferase transactivation assay in HEK-293 cells; assay type: cell-based; conditions: for GR-mediated transactivation, agonist mode (in words): all tested concentrations; for Inhibition of dexamethasone-induced GR-mediated transactivation, antagonist mode (in words): with 1 nM dexamethasone
T2 construct: expressed in transfected cells; host or cells: HEK-293
T2 sequence (P06536 1-795): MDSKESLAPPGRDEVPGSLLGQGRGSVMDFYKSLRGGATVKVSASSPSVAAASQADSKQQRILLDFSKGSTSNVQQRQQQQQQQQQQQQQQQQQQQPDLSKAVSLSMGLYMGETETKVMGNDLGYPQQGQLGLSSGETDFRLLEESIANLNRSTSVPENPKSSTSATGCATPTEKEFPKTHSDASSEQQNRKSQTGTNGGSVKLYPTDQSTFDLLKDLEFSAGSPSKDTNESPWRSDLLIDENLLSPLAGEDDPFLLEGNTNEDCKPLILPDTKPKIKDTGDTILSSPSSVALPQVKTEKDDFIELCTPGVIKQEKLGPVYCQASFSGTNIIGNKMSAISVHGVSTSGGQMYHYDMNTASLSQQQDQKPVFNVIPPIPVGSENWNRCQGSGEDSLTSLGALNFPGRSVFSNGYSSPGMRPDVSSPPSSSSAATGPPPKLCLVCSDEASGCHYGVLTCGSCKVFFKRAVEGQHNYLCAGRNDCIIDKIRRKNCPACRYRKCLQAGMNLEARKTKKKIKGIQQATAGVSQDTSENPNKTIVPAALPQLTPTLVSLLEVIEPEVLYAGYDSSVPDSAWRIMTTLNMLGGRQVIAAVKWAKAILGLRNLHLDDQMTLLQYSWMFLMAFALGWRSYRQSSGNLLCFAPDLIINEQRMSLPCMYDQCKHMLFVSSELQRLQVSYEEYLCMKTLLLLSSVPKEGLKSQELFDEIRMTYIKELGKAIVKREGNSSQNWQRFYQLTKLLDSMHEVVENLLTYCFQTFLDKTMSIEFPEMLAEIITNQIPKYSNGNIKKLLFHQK

PR = molecular target: T3, PR (Rattus norvegicus, UniProt Q63449); assay: as above; assay type: cell-based; conditions: for PR-mediated transactivation, agonist mode (in words): all tested concentrations
T3 construct: expressed in transfected cells; host or cells: HEK-293
T3 sequence (Q63449 1-923): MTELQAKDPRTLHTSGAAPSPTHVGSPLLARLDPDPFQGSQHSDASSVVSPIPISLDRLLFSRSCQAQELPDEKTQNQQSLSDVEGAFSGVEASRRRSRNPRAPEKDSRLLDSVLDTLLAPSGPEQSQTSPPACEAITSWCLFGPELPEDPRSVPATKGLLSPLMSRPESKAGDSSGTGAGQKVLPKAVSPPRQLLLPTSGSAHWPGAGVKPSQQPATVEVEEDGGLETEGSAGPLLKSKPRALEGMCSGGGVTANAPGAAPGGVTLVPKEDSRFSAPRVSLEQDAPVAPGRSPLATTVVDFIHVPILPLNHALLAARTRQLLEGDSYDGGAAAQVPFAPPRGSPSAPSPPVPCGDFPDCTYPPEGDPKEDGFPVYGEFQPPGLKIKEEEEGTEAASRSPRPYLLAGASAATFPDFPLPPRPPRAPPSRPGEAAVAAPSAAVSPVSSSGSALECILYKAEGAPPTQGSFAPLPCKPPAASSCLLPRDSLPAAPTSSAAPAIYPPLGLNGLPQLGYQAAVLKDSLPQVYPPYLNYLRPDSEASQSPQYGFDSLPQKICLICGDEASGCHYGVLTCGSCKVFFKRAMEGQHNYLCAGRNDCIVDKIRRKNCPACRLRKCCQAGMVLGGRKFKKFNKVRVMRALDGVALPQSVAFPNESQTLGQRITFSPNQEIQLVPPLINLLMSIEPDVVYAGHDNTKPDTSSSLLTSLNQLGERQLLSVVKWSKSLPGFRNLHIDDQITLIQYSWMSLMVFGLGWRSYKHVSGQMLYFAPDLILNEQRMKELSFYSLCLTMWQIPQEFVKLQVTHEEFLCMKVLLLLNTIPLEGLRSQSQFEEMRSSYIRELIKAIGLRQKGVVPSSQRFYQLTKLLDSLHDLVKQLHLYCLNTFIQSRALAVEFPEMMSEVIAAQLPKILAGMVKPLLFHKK

[1] = 1 and 10 μM, with 1 nM progesterone

T1 sequence (P11712 whole entry): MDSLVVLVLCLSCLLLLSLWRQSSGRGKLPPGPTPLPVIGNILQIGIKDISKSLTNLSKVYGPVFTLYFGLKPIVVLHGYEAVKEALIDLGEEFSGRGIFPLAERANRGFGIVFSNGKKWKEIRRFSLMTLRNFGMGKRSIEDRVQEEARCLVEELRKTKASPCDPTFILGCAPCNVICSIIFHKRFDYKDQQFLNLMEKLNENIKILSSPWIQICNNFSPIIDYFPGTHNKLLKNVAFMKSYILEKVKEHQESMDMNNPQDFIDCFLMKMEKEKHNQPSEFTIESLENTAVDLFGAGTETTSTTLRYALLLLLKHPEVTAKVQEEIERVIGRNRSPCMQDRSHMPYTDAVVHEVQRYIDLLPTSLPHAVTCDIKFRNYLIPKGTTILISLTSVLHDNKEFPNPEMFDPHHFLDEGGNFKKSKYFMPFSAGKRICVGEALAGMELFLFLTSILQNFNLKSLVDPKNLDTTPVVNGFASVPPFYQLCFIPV

Row | Compound | IC50 (CYP2C9) [µM] | Inhibition of CYP2C9 activity (in words) (CYP2C9) | GR-mediated transactivation, agonist mode (in words) (GR) | Inhibition of dexamethasone-induced GR-mediated transactivation, antagonist mode (in words) (GR) | Inhibition of PR activity, antagonist mode (in words) (PR; [1]) | PR-mediated transactivation, agonist mode (in words) (PR) | Inhibition of PR activity, antagonist mode (in words) (PR; 0.1 μM and 10 μM) | Increase of PR transactivation, agonist mode (PR; 1 μM) [fold] | Inhibition of PR-mediated transactivation, antagonist mode (in words) (PR; 1 μM) | Increase of PR transactivation, agonist mode (PR; 10 μM) [fold] | PR antagonistic activity relative to RU486 (fold weaker) (PR; versus RU486) | PR agonist potency relative to progesterone (fold weaker) (PR; versus endogenous agonist progesterone)
1 | C[C@](O)(COc1ccc(F)cc1)C(=O)Nc1ccc(C#N)c(C(F)(F)F)c1 [S-(III)] | 1.3 | moderate inhibition | did not induce | not inhibited | significantly inhibited | did not induce |  |  |  |  |  | 
2 | C[C@](O)(COc1ccc(Cl)cc1)C(=O)Nc1ccc(C#N)c(C(F)(F)F)c1 [S-(II)] | 3.8 | moderate inhibition | did not induce | not inhibited | significantly inhibited | did not induce |  |  |  |  |  | 
3 | C[C@](O)(COc1ccc(C#N)cc1)C(=O)Nc1ccc(C#N)c(Cl)c1 [S-(I), (S)—N-(3-chloro-4-cyanophenyl)-3-(4-cyanophenoxy)-2-hydroxy-2-methylpropanamide] | 5.1 | did not appreciably inhibit | failed to activate | failed to alter |  | partial agonist activity | significantly partially inhibited | 3 | completely inhibited | 8 | about 1,000 fold | greater than 10,000 fold
